Experimental findings from patent publication US20260201008A1, “SECRETIN-DERIVED GLP1R SELECTIVE AGONISTS” (GUBRA A/S, priority 2023, published 2026) are described below.

Like-named read-outs stand apart in the source and are kept apart here. Numbered stars: 1 amine (or outer) side, 2 acyl side, 3 side chain; on linkers, the order of the positions; unused ones are H or OH. Square brackets hold non-standard residues; d marks the D form. Side chains are listed from the residue outwards. Peptide text beside a SMILES is read from it. * marks the point of attachment. C20 diacid = O=C(O)CCCCCCCCCCCCCCCCCCC(=O)*; γGlu = O=C(O)[C@H](CCC(=O)[*:2])N[*:1]; AEEA = NCCOCCOCC(=O)O; Aib = CC(C)(N)C(=O)O

Data set [1] can be described thus: Turbidity of crude library peptides (absorbance at 600 nm). It counts as physicochemical. The note with it: Physical stability of peptides. Summed up: (§1)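 Fibril formation is scored as average ThT fluorescence from duplicate samples monitored for 72 h at 40° C with shaking stress. Turbidity is the absorbance at 600 nm taken before heating. Peptide concentration was 267 μM at pH 4.0 or pH 7.0.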

Another data set addresses GLP1R (Homo sapiens, UniProt P43220). Put plainly: hGLP1R potency, cAMP accumulation in CHO-K1 cells stably overexpressing hGLP1R. The note with it: for EC50: cAMP accumulation, CHO-K1 cells overexpressing hGLP1R; for SCTR EC50/GLP1R EC50 ratio: selectivity for hGLP1R over hSCTR, cAMP accumulation in CHO-K1 cells; for Selectivity: SCTR EC50/GLP1R EC50 ratio. Also on record: host or cells: CHO-K1. It counts as cell-based. In a few lines: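 In the presence of 0.5 mM IBMX, compounds stimulated the cells for 30 minutes at room temperature. Accumulated cAMP was then detected by TR-FRET, with EC50 values fitted by variable-slope nonlinear regression.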

For another data set, the target named is SCTR (Homo sapiens, UniProt P47872). Put plainly: hSCTR potency, cAMP accumulation in CHO-K1 cells stably overexpressing hSCTR. It counts as cell-based. Also on record: alternatively Euroscreen ES-712-AF; FAST-0161L; host or cells: CHO-K1. The note with it: cAMP accumulation, CHO-K1 cells overexpressing hSCTR. Summed up: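 In this Gs cAMP assay, stably transfected CHO-K1 hSCTR cells were stimulated at room temperature for 30 min in IBMX-containing buffer. Time-resolved FRET gave the signal. Replicates were increased when the top concentration changed or EC50 values differed 5-fold.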
SCTR, sequence (P47872 23-440): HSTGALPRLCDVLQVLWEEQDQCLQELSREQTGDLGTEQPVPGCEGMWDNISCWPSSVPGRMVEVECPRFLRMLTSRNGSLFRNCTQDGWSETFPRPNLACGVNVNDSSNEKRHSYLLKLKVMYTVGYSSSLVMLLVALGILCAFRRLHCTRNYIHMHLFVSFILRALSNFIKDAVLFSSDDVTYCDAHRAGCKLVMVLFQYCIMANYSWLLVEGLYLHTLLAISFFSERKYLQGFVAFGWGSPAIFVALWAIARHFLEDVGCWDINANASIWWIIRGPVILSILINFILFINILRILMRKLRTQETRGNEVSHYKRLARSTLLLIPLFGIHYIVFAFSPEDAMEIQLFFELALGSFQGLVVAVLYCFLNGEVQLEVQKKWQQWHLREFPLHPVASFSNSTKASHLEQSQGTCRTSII
A general note: Changes in cAMP serve as a functional read-out for many G protein-coupled receptors.

Data set [2] can be described thus: Fibril formation of crude library peptides (Thioflavin T). The format is physicochemical. Also on record: key: average ThT fluorescence emission at 480 nm (ex 450 nm), raw units. The note with it: Physical stability of peptides. In a few lines:
as §1

Where [3] appears, read: read-out: hGLP1R pEC50 (converted).
[4] abbreviates: read-out: hSCTR pEC50 (converted).
[5] abbreviates: read-out: pEC50 hGLPR1 (converted).
[6] abbreviates: read-out: pEC50 hSCTR (converted).

GLP1R, sequence (P43220 24-463): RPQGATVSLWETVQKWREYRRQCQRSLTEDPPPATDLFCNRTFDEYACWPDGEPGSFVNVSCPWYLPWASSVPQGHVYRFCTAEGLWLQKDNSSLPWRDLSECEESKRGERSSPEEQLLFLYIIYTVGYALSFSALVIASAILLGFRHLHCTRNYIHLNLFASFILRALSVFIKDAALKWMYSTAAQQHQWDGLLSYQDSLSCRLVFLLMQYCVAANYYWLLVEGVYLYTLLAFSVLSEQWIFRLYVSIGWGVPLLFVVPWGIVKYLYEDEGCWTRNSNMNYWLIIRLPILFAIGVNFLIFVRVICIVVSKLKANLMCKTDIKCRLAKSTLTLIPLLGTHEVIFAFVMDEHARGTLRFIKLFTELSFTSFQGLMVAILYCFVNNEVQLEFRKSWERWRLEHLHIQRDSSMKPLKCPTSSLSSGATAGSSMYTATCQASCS

Turning to `CC(C)C[C@H](NC(=O)[C@H](Cc1ccccc1)NC(=O)[C@H](CCCNC(=N)N)NC(=O)[C@H](CCC(N)=O)NC(=O)[C@H](CO)NC(=O)[C@H](C)NC(=O)[C@H](C)NC(=O)[C@H](CCC(=O)O)NC(=O)[C@H](CCC(=O)O)NC(=O)[C@H](CCCCNC(=O)COCCOCCNC(=O)COCCOCCNC(=O)CC[C@H](NC(=O)CCCCCCCCCCCCCCCCCCC(=O)O)C(=O)O)NC(=O)[C@H](CC(C)C)NC(=O)[C@H](CCC(=O)O)NC(=O)[C@H](CO)NC(=O)[C@@H](NC(=O)[C@H](CC(=O)O)NC(=O)[C@H](CO)NC(=O)[C@@H](NC(=O)[C@H](Cc1ccccc1)NC(=O)[C@@H](NC(=O)CNC(=O)[C@H](CCC(=O)O)NC(=O)C(C)(C)NC(=O)[C@@H](N)Cc1c[nH]cn1)[C@@H](C)O)[C@@H](C)O)C(C)C)C(=O)N[C@@H](CCC(=O)O)C(=O)N[C@@H](Cc1c[nH]cn1)C(=O)N[C@@H](CC(C)C)C(=O)N[C@H](C(N)=O)C(C)C` [compound 87] (H-H[Aib]EGTFTSDVSELK([AEEA-AEEA-γGlu-C20 diacid])EEAASQRFLEHLV-NH2), the “Turbidity (pH 7)” value in data set [1] is reported as 0.08. Moreover, the EC50 at GLP1R (setting [3]) was 0.0398 nM; at SCTR (setting [4]) it was 1580 nM. For the same compound, the “SCTR EC50/GLP1R EC50 ratio” value on GLP1R is listed as 39811. The Fibril formation in data set [2] is listed as 7811.
On to `CC(C)C[C@H](NC(=O)[C@H](Cc1ccccc1)NC(=O)[C@H](CCCNC(=N)N)NC(=O)[C@H](CCC(N)=O)NC(=O)[C@H](CCC(N)=O)NC(=O)[C@H](C)NC(=O)[C@H](C)NC(=O)C(C)(C)NC(=O)[C@H](CCC(=O)O)NC(=O)[C@H](CCCCNC(=O)COCCOCCNC(=O)COCCOCCNC(=O)CC[C@H](NC(=O)CCCCCCCCCCCCCCCCCCC(=O)O)C(=O)O)NC(=O)[C@H](CC(C)C)NC(=O)[C@@H](NC(=O)[C@H](CO)NC(=O)[C@@H](NC(=O)[C@H](CC(=O)O)NC(=O)[C@H](CO)NC(=O)[C@@H](NC(=O)[C@H](Cc1ccccc1)NC(=O)[C@@H](NC(=O)CNC(=O)[C@H](CCC(=O)O)NC(=O)C(C)(C)NC(=O)[C@@H](N)Cc1c[nH]cn1)[C@@H](C)O)[C@@H](C)O)C(C)C)C(C)C)C(=O)N[C@@H](CCC(=O)O)C(=O)N[C@@H](Cc1c[nH]cn1)C(=O)N[C@@H](CC(C)C)C(=O)N[C@H](C(N)=O)C(C)C` [compound 40] (H-H[Aib]EGTFTSDVSVLK([AEEA-AEEA-γGlu-C20 diacid])E[Aib]AAQQRFLEHLV-NH2), for which, in data set [1], the “Turbidity (pH 7)” value stood at 0.08. The Selectivity at GLP1R was 21943. For the same compound, the EC50 on GLP1R (setting [5]) was 0.02 nM; at SCTR (setting [6]), 398 nM. Further, the Fibril formation in data set [2] was determined as 12180.
Consider `CC(C)C[C@H](NC(=O)[C@H](Cc1ccccc1)NC(=O)[C@H](CCCNC(=N)N)NC(=O)[C@H](CCC(N)=O)NC(=O)[C@H](CC(C)C)NC(=O)C(C)(C)NC(=O)[C@H](C)NC(=O)[C@H](CCC(=O)O)NC(=O)[C@H](CCC(=O)O)NC(=O)[C@H](Cc1c[nH]cn1)NC(=O)[C@H](CC(C)C)NC(=O)[C@H](Cc1ccc(O)cc1)NC(=O)[C@H](CO)NC(=O)[C@@H](NC(=O)[C@H](CC(=O)O)NC(=O)[C@H](CO)NC(=O)[C@@H](NC(=O)[C@H](Cc1ccccc1)NC(=O)[C@@H](NC(=O)CNC(=O)[C@H](CCC(=O)O)NC(=O)C(C)(C)NC(=O)[C@@H](N)Cc1c[nH]cn1)[C@@H](C)O)[C@@H](C)O)C(C)C)C(=O)N[C@@H](CCC(=O)O)C(=O)N[C@@H](CCCCNC(=O)COCCOCCNC(=O)COCCOCCNC(=O)CC[C@H](NC(=O)CCCCCCCCCCCCCCCCCCC(=O)O)C(=O)O)C(=O)N[C@@H](CC(C)C)C(=O)N[C@H](C(N)=O)C(C)C` [compound 164] (H-H[Aib]EGTFTSDVSYLHEEA[Aib]LQRFLEK([AEEA-AEEA-γGlu-C20 diacid])LV-NH2), for which, in data set [1], the “Turbidity (pH 7)” value turned out to be 0.08. Also, the values for the EC50 at GLP1R (setting [3]) and on SCTR (setting [4]) were 0.02 nM and 251 nM, respectively. Further, the “SCTR EC50/GLP1R EC50 ratio” value at GLP1R amounted to 11362. This compound gave a Fibril formation in data set [2] of 4789.
With `CC(C)C[C@H](NC(=O)[C@H](Cc1ccccc1)NC(=O)[C@H](CCCNC(=N)N)NC(=O)[C@H](CCC(N)=O)NC(=O)[C@H](CCC(N)=O)NC(=O)C(C)(C)NC(=O)[C@H](C)NC(=O)[C@H](CCC(=O)O)NC(=O)[C@H](CCC(=O)O)NC(=O)[C@H](CCCCNC(=O)COCCOCCNC(=O)COCCOCCNC(=O)CC[C@H](NC(=O)CCCCCCCCCCCCCCCCCCC(=O)O)C(=O)O)NC(=O)[C@H](CC(C)C)NC(=O)[C@H](Cc1ccc(O)cc1)NC(=O)[C@H](CO)NC(=O)[C@@H](NC(=O)[C@H](CC(=O)O)NC(=O)[C@H](CO)NC(=O)[C@@H](NC(=O)[C@H](Cc1ccccc1)NC(=O)[C@@H](NC(=O)CNC(=O)[C@H](CCC(=O)O)NC(=O)C(C)(C)NC(=O)[C@@H](N)Cc1c[nH]cn1)[C@@H](C)O)[C@@H](C)O)C(C)C)C(=O)N[C@@H](CCC(=O)O)C(=O)N[C@@H](Cc1c[nH]cn1)C(=O)N[C@@H](CC(C)C)C(=O)N[C@H](C(N)=O)C(C)C` [compound 157] (H-H[Aib]EGTFTSDVSYLK([AEEA-AEEA-γGlu-C20 diacid])EEA[Aib]QQRFLEHLV-NH2), in data set [1], the “Turbidity (pH 7)” value was 0.09. In addition, the figures for the EC50 on GLP1R (setting [3]) and on SCTR (setting [4]) were 0.00251 nM and 316 nM, respectively. For the same compound, the “SCTR EC50/GLP1R EC50 ratio” value on GLP1R is recorded as 121171. The compound further yielded a Fibril formation in data set [2] of 3415.
On to `CC(C)C[C@H](NC(=O)[C@H](Cc1ccccc1)NC(=O)[C@H](CCCNC(=N)N)NC(=O)[C@H](CCC(N)=O)NC(=O)[C@@H](NC(=O)[C@H](C)NC(=O)[C@H](C)NC(=O)[C@H](CCC(=O)O)NC(=O)[C@H](CCC(=O)O)NC(=O)[C@H](CCCCNC(=O)COCCOCCNC(=O)COCCOCCNC(=O)CC[C@H](NC(=O)CCCCCCCCCCCCCCCCCCC(=O)O)C(=O)O)NC(=O)[C@H](CC(C)C)NC(=O)[C@H](Cc1ccc(O)cc1)NC(=O)[C@H](CO)NC(=O)[C@@H](NC(=O)[C@H](CC(=O)O)NC(=O)[C@H](CO)NC(=O)[C@@H](NC(=O)[C@H](Cc1ccccc1)NC(=O)[C@@H](NC(=O)CNC(=O)[C@H](CCC(=O)O)NC(=O)C(C)(C)NC(=O)[C@@H](N)Cc1c[nH]cn1)[C@@H](C)O)[C@@H](C)O)C(C)C)[C@@H](C)O)C(=O)N[C@@H](CCC(=O)O)C(=O)N[C@@H](Cc1c[nH]cn1)C(=O)N[C@@H](CC(C)C)C(=O)N[C@H](C(N)=O)C(C)C` [compound 30] (H-H[Aib]EGTFTSDVSYLK([AEEA-AEEA-γGlu-C20 diacid])EEAATQRFLEHLV-NH2), for which, in data set [1], the “Turbidity (pH 7)” value was 0.08. Further, the Selectivity at GLP1R amounted to 22387. Moreover, the EC50 at GLP1R (setting [5]) was 0.0126 nM; on SCTR (setting [6]), 251 nM. The same compound displayed a Fibril formation in data set [2] of 6899.
